# System: E. coli ATCC25922
# Assay: Antibacterial activity in combination with minocycline (growth inhibition)
# Format: cell-based
# Conditions: Escherichia coli, ATCC25922, compound at 25 μM; minocycline 0.25 μg/mL; OD625 23 h minus 1 h; read-out: residual growth of E. coli ATCC25922 (% of uninhibited control) with minocycline
# Protocol: Antibacterial activity in combination with minocycline or with linezolid
# Inhibition of growth was measured with E. coli ATCC25922 and P. aeruginosa PAO1 in a 96-well plate format. Cation-adjusted Müller-Hinton broth (caMHB) was inoculated with an overnight culture and incubated at 37° C. on a shaker until OD625 reached 0.6 to 0.7. Density was adjusted to OD600=0.5 by addition of caMHB. 35 μL of the suspension were diluted to 35 mL with caMHB and supplemented with minocycline at the subinhibitory doses of 0.25 μg/mL for E. coli and 8 μg/mL for P. aeruginosa or with linezolid at the subinhibitory dose of 128 μg/mL for E. coli and P. aeruginosa. Each well contained 1 μL of test compound in 100 μL caMHB with minocycline or with linezolid.
# Plates were incubated at 37° C. on a plate shaker. OD625 was measured at 1 h, 6 h, and at 23 h.
# The difference between OD at 23 h and at 1 h was taken as measure for cell density and compared to controls without inhibitor (i.e. uninhibited control). Results were expressed as residual growth (% of uninhibited control). Enhancement of minocycline or linezolid activity caused reduced residual growth.
row,SMILES,activity at 25 µM
1,CC(C)(C)c1ccc(COc2cc(Cl)cc(CNCC3CNC3)c2)cc1 [Example 228],≤ 10%
2,Clc1ccc(COc2cccc(CNCC3CNC3)c2)c(I)c1 [Example 229],≤ 10%
3,Clc1ccc(COc2cccc(CNCC3CCNC3)c2)c(I)c1 (stereo not shown) [Example 230],≤ 10%
4,CC(C)(C)c1ccc(COc2ccc(CNCC3CNC3)cc2)cc1 [Example 231],≤ 10%
5,CC(C)(C)c1ccc(/C=C/c2cccc(CNCC3CCNC3)c2)cc1 (stereo not shown) [Example 233],≤ 10%
6,CC(C)(C)c1ccc(/C=C/c2cccc(CNCC3CNC3)c2)cc1 [Example 234],≤ 10%
7,CC(C)(C)c1ccc(/C=C\c2cccc(CNC3CCNCC3)c2)cc1 [Example 235],≤ 10%
8,"CC(C)(C)c1ccc(/C=C\c2cccc(CNCC3CCNC3)c2)cc1 (stereo not shown) [Example 236, 1-[3-[(Z)-2-(4-tert-butylphenyl)vinyl]phenyl]-N-(pyrrolidin-3-ylmethyl)methanamine]",≤ 10%
9,CC(C)(C)c1ccc(/C=C\c2cccc(CNCC3CNC3)c2)cc1 [Example 237],≤ 10%
10,Clc1ccc(COc2cc(CNCC3CCNC3)cc(OCCN3CCOCC3)c2)c(Br)c1 (stereo not shown) [Example 238],≤ 10%
11,Clc1ccc(COc2cc(CNCC3CNC3)cc(OCCN3CCOCC3)c2)c(Br)c1 [Example 239],≤ 10%
12,CC(C)(C)c1ccc(/C=C/c2cccc(CNC3CCNCC3)c2)cc1 [Example 240],≤ 10%
13,Clc1ccc(/C=C\c2cc(CNCC3CCNC3)cc(OCCN3CCOCC3)c2)c(Br)c1 (stereo not shown) [Example 241],≤ 10%
14,Clc1ccc(/C=C\c2cc(CNCC3CNC3)cc(OCCN3CCOCC3)c2)c(Br)c1 [Example 242],≤ 10%
15,Clc1ccc(/C=C/c2cc(CNCC3CNC3)cc(OCCN3CCOCC3)c2)c(Br)c1 [Example 243],≤ 10%
16,Clc1ccc(/C=C/c2cc(CNCC3CCNC3)cc(OCCN3CCOCC3)c2)c(Br)c1 (stereo not shown) [Example 246],≤ 10%
17,C[N+]1(C)CC(OCCOc2cc(CNCC3CCNC3)cc(OCc3ccc(Cl)cc3Br)c2)CC1C(=O)O (stereo not shown) [Example 247],≤ 10%
18,C[N+]1(C)CC(OCCOc2cc(CNCC3CNC3)cc(OCc3ccc(Cl)cc3Br)c2)CC1C(=O)O (stereo not shown) [Example 248],≤ 10%
19,CN1CC(OCCOc2cc(CNCC3CNC3)cc(OCc3ccc(Cl)cc3Br)c2)CC1C(=O)O (stereo not shown) [Example 249],≤ 10%
20,Clc1ccc(COc2cc(CNCC3CNC3)cc(OCCc3c[nH]cn3)c2)c(Br)c1 [Example 252],≤ 10%
21,Clc1ccc(/C=C\c2cc(CNCC3CCNC3)cc(OCCc3ccncc3)c2)c(Br)c1 (stereo not shown) [Example 253],≤ 10%
22,Clc1ccc(/C=C/c2cc(CNCC3CCNC3)cc(OCCc3ccncc3)c2)c(Br)c1 (stereo not shown) [Example 254],≤ 10%
23,Clc1ccc(/C=C\c2cc(CNCC3CNC3)cc(OCCc3c[nH]cn3)c2)c(Br)c1 [Example 255],≤ 10%
24,Clc1ccc(COc2cc(CNCC3CNC3)cc(OCCc3ccncc3)c2)c(Br)c1 [Example 256],≤ 10%

row,SMILES,activity at 25 µM
1,Clc1ccc(/C=C\c2cc(CNCC3CNC3)cc(OCCc3ccncc3)c2)c(Br)c1 [Example 257],≤ 10%
2,Clc1ccc(COc2cc(CNCC3CCNC3)cc(OCCc3ccncc3)c2)c(Br)c1 (stereo not shown) [Example 258],≤ 10%
3,Clc1ccc(/C=C\c2cc(CNCC3CCNC3)cc(OCCc3c[nH]cn3)c2)c(Br)c1 (stereo not shown) [Example 259],≤ 10%
4,Clc1ccc(/C=C/c2cc(CNCC3CNC3)cc(OCCc3ccncc3)c2)c(Br)c1 [Example 260],≤ 10%
5,Clc1ccc(/C=C/c2cc(CNCC3CNC3)cc(OCCc3c[nH]cn3)c2)c(Br)c1 [Example 261],≤ 10%
6,Clc1ccc(/C=C/c2cc(CNCC3CCNC3)cc(OCCc3c[nH]cn3)c2)c(Br)c1 (stereo not shown) [Example 262],≤ 10%
7,CC(C)COc1cc(CNCC2CCNC2)cc(OCc2ccc(C(F)(F)F)cc2)c1 (stereo not shown) [Example 264],≤ 10%
8,CC(C)COc1cc(CNCC2CCNC2)cc(OCc2ccc(C(F)(F)F)cc2C(F)(F)F)c1 (stereo not shown) [Example 265],≤ 10%
9,COc1cc(C#N)ccc1COc1cc(CNCC2CCNC2)cc(OCC(C)C)c1 (stereo not shown) [Example 266],≤ 10%
10,CC(C)COc1cc(CNCC2CCNC2)cc(OCc2ccc(Cl)cn2)c1 (stereo not shown) [Example 267],≤ 10%
11,CC(C)COc1cc(CNCC2CCNC2)cc(OCc2ccc(F)cc2Br)c1 (stereo not shown) [Example 268],≤ 10%
12,CC(C)COc1cc(CNCC2CCNC2)cc(OCc2ccc(Cl)nc2)c1 (stereo not shown) [Example 269],≤ 10%
13,CC(C)COc1cc(CNCC2CCNC2)cc(OCc2ccc(C(F)(F)F)cc2F)c1 (stereo not shown) [Example 271],≤ 10%
14,C=CCOc1cc(/C=C/c2ccc(F)cc2)cc(CNCC2CNC2)c1 [Example 272],≤ 10%
15,CC(C)COc1cc(CNCC2CNC2)cc(OCc2ccc(C(C)(C)C)cc2)c1 [Example 274],≤ 10%
16,C=CCOc1cc(/C=C/c2ccc(C(F)(F)F)cc2)cc(CNCC2CNC2)c1 [Example 275],≤ 10%
17,CC(C)COc1cc(CNCC2CCNC2)cc(OCc2ccc(F)cc2C(F)(F)F)c1 (stereo not shown) [Example 280],≤ 10%
18,CC(C)COc1cc(CNCC2CCNC2)cc(OCc2ccc(Cl)cc2C(F)(F)F)c1 (stereo not shown) [Example 281],≤ 10%
19,CC(C)COc1cc(CNCC2CCNC2)cc(OCc2ccc(C(F)(F)F)cc2Br)c1 (stereo not shown) [Example 282],≤ 10%
20,CC(C)COc1cc(CNCC2CCNC2)cc(OCc2ccc(F)nc2F)c1 (stereo not shown) [Example 283],≤ 10%
21,C=CCOc1cc(/C=C/c2ccc(C#N)cc2)cc(CNCC2CNC2)c1 [Example 284],≤ 10%
22,CC(C)COc1cc(CNCC2CCNC2)cc(OCc2ccc(C(F)(F)F)cn2)c1 (stereo not shown) [Example 289],≤ 10%
23,CC(C)COc1cc(CNCC2CCNC2)cc(OCc2ccc(C(C)(C)C)cc2Br)c1 (stereo not shown) [Example 290],≤ 10%
24,CC(C)COc1cc(CNCC2CCNC2)cc(OCc2ccc(C(F)(F)F)nc2)c1 (stereo not shown) [Example 291],≤ 10%

row,SMILES,activity at 25 µM
1,C=CCOc1cc(/C=C/c2ccc(C(C)(C)C)cc2)cc(CNCC2CNC2)c1 [Example 292],≤ 10%
2,C=CCOc1cc(/C=C/c2ccc(OC)cc2)cc(CNCC2CNC2)c1 [Example 294],≤ 10%
3,CC(C)(C)c1ccc(COc2cc(CNCC3CNC3)cc(C(C)(C)C)c2)cc1 [Example 295],≤ 10%
4,C=CCOc1cc(CNCC2CNC2)cc(OCc2ccc(C(C)(C)C)cc2)c1 [Example 296],≤ 10%
5,CC(C)(C)c1ccc(COc2cc(CNCC3CNC3)cc(OCc3ccccc3)c2)cc1 [Example 297],≤ 10%
6,C=CCOc1cc(/C=C/c2ccc(C#N)c(C(F)(F)F)c2)cc(CNCC2CNC2)c1 [Example 299],≤ 10%
7,C=CCOc1cc(/C=C/c2ccc(C#N)c(C(F)(F)F)c2)cc(CNCC2CCNC2)c1 (stereo not shown) [Example 300],≤ 10%
8,N#Cc1ccc(/C=C/c2cccc(CNCC3CCNC3)c2)cc1C(F)(F)F (stereo not shown) [Example 301],≤ 10%
9,C=CCOc1cc(/C=C/c2ccncc2C#N)cc(CNCC2CCNC2)c1 (stereo not shown) [Example 306],≤ 10%
10,C=CCOc1cc(/C=C/c2ccc(C#N)cn2)cc(CNCC2CCNC2)c1 (stereo not shown) [Example 307],≤ 10%
11,N#Cc1ccc(/C=C/c2cccc(CNCC3CNC3)c2)cc1C(F)(F)F [Example 308],≤ 10%
12,C=CCOc1cc(/C=C/c2cc(C#N)cc(C(F)(F)F)c2)cc(CNCC2CNC2)c1 [Example 309],≤ 10%
13,C=CCOc1cc(/C=C/c2ccc(C#N)cc2C(F)(F)F)cc(CNCC2CNC2)c1 [Example 310],≤ 10%
14,C=CCOc1cc(/C=C/c2ccc(C(F)(F)F)cc2C#N)cc(CNCC2CNC2)c1 [Example 311],≤ 10%
15,N#Cc1ccc(/C=C/c2cccc(CNCC3CNC3)c2)c(C(F)(F)F)c1 [Example 312],≤ 10%
16,C=CCOc1cc(/C=C/c2ccc(C#N)cc2C(F)(F)F)cc(CNCC2CCNC2)c1 (stereo not shown) [Example 313],≤ 10%
17,C=CCOc1cc(/C=C/c2ncccc2C#N)cc(CNCC2CCNC2)c1 (stereo not shown) [Example 315],≤ 10%
18,C=CCOc1cc(/C=C/c2cccs2)cc(CNCC2CNC2)c1 [Example 317],≤ 10%
19,C=CCOc1cc(/C=C/c2ccsc2)cc(CNCC2CNC2)c1 [Example 318],≤ 10%
20,C=CCOc1cc(/C=C/c2ccc(C(F)(F)F)c(C#N)c2)cc(CNCC2CNC2)c1 [Example 321],≤ 10%
21,C=CCOc1cc(CCc2ccc(OC)cc2OC)cc(CNCC2CNC2)c1 [Example 322],≤ 10%
22,C=CCOc1cc(/C=C/c2ccnc(C#N)c2)cc(CNCC2CCNC2)c1 (stereo not shown) [Example 324],≤ 10%
23,C=CCOc1cc(/C=C/c2cncc(C#N)c2)cc(CNCC2CCNC2)c1 (stereo not shown) [Example 325],≤ 10%
24,C=CCOc1cc(/C=C/c2ccc(C#N)nc2)cc(CNCC2CCNC2)c1 (stereo not shown) [Example 326],≤ 10%

# Same assay, conditions: Escherichia coli, ATCC25922, compound at 50 μM; minocycline 0.25 μg/mL; OD625 23 h minus 1 h; read-out: residual growth of E. coli ATCC25922 (% of uninhibited control) with minocycline
row,SMILES,activity at 50 µM
1,CC(C)COc1cc(CNCC2CCNC2)cc(OCc2cccnc2Br)c1 (stereo not shown) [Example 278],≤ 50%

# — US10464896B2, “Efflux-pump inhibitors and therapeutic uses thereof” (Basilea Pharmaceutica International AG, priority 2015, dated 2019)
